# Data published in patent US9181307B2, “Influenza A 2009 pandemic H1N1 polypeptide fragments comprising endonuclease activity and their use” (priority 2010, dated 2015).
# System: Influenza A 2009 pandemic H1N1 PA subunit polypeptide fragment or variant thereof
# Assay: Inhibition of endonucleolytic activity of PA subunit polypeptide fragment
# Assay type: biochemical, Influenza A 2009 pandemic H1N1 virus
row,SMILES,"ability to modulate, i.e. to inhibit, the endonucleolytic activity"
1,"O=C(O[C@@H]1Cc2c(O)cc(O)cc2O[C@@H]1c1cc(O)c(O)c(O)c1)c1cc(O)c(O)c(O)c1 [EGCG, [(2R,3R)-5,7-dihydroxy-2-(3,4,5-trihydroxyphenyl)chroman-3-yl]3,4,5-trihydroxybenzoate]",inhibit
2,"O=C(O)/C(O)=C/C(=O)C1(Cc2ccc(Cl)cc2)CCN(CC2CCCCC2)CC1 [EMBL-R05-2, 4-[4-[(4-chlorophenyl)methyl]-1-(cyclohexylmethyl)-4-piperidinyl]-2-hydroxy-4-oxo-2-butenoic acid]",inhibit
3,"O=C(O)/C(O)=C/C(=O)C1(Cc2ccc(Cl)cc2)CCCN(Cc2ccccc2)C1 (stereo not drawn) [EMBL-R05-3, 4-[3-[(4-chlorophenyl)methyl]-1-(phenylmethyl)-3-piperidinyl]-2-hydroxy-4-oxo-2-butenoic acid]",inhibit
